Experimental data taken from patent US8604206B2, “Compositions for preventing and/or treating degenerative disorders of the central nervous system” (Amicus Therapeutics, Inc., priority 2009, dated 2013).
Like-named read-outs stand apart in the source and are kept apart here.

Legend:
[1] = target: recombinant human GCase (rhGCase; Cerezyme®) (Homo sapiens (Human), UniProt P04062, R534H); experiment: In vitro enzyme inhibition assay (4-MU-β-D-Glc substrate), inhibition constants; format: biochemical
Procedure: The binding affinity (defined here by Ki binding constant) of GCase for novel compounds of the present invention were empirically determined using enzyme inhibition assays. In brief, the enzyme inhibition assays used monitored the ability of a test compound to bind and prevent the hydrolysis of a fluorogenic substrate in a concentration-dependent mariner. Specifically, the enzyme activity of recombinant human GCase (rhGCase; Cerezyme®, Genzyme Corp.) was measured using the 4-methylumbelliferyl-β-D-glucopyranoside (4-MU-β-D-Glc) fluorogenic substrate in the absence or in the presence of varying amounts of each test compound. […] The enzyme inhibition assays were performed at both pH 7.0 (endoplasmic reticulum pH) and at pH 5.2 (lysosomal pH) to gain insight into the binding affinity (i.e., potency) of compounds for GCase in the endoplasmic reticulum and lysososome.
Various concentrations of test compounds were prepared in buffer “M” consisting of 50 mM sodium phosphate buffer with 0.25% sodium taurocholate at pH 7.0 and pH 5.2. Enzyme (Cerezyme®, a recombinant form of the human enzyme β-glucocerebrosidase) was also diluted in the same buffer “M” at pH 7.0 and pH 5.2. […] Five microliters of diluted enzyme was added to 15 μl of the various inhibitor concentrations or buffer “M” alone and incubated at 37° C. for 1 hour with 50 μl of the substrate preparation to assess β-glucosidase activity at pH 7.0 and pH 5.2. […] Fluorescence was measured on a plate reader for 1 sec/well using 355 nm excitation and 460 nm emission.

Rat pharmacokinetics = format: in vivo; settings: male, Sprague-Dawley, plasma; for Cmax: read-out: Cmax
Procedure: Pharmacokinetic (PK) data was obtained in rats to assess the bioavailability of test compound. In particular, the following PK parameters were calculated: bioavailability as measured by area under the Concentration/Time curve (AUC), fraction of dose available (% F; further defined below), clearance (CL), volume of distribution (Vd), and half-life (t½). […] Three rats were used per dosing group. Blood was collected over a 24-hr period. The time points for blood collection after intravenous administration were: 0, 2.5, 5, 10, 15, 30, 45 min, 1, 2, 4, 8, 12, and 24 hrs; time points for blood collection after p.o. administrations were: 0, 5, 15, 30, 45 min, 1, 2, 3, 4, 8, 12, and 24 hrs. Plasma samples were analyzed for compound levels by LC-MS/MS at PPD. Raw data was analyzed by non-compartmental analysis in Win-nonLin to calculate VD, % F, CL, and t1/2.

[2] = Compound concentration in tissue of mice of the GCase enhancement study; format: in vivo, mouse; settings: 9 doses, 24-hour washout
Procedure: The dosing solutions were prepared in water. Compounds were administered over 2 weeks as follows: week 1, Mon-Fri (On), Sat-Sun (Off); week 2, Mon-Thu (On); necropsy on Friday. Thus, a total of 9 doses (dosing solutions prepared fresh every day) were given to each mouse, with a 24-hour washout between the last dose and necropsy.
Plasma was collected by spinning blood at 2700 g for 10 minutes at 4° C. Liver, spleen, lung, and brain tissues were removed, washed in cold PBS, blotted dry, flash frozen on dry ice, and stored at −80° C. until analysis. GCase levels were measured by homogenizing approximately 50 mg tissue in 500 μL McIlvane (MI) buffer (100 mM sodium citrate, 200 mM sodium phosphate dibasic, 0.25% sodium taurocholate, and 0.1% Triton X-100, pH 5.2) at pH 5.2 for 3-5 seconds on ice with a micro homogenizer. Homogenates were then incubated at room temperature without and with 2.5 mM conduritol-B-epoxide (CBE) for 30 min. Finally, 3.7 mM 4-methylumbeliferryl-β-glucoside (4-MUG) substrate was added and incubated at 37° C. for 60 min. […] Fluorescence was measured on a plate reader for 1 sec/well using 355 nm excitation and 460 nm emission. Total protein was determined in lysates using the MicroBCA kit according to the manufacturer's instructions. A 4-methylumbelliferone (4-MU) standard curve ranging from 1.0 nM to 50 μM was run in parallel for conversion of raw fluorescence data to absolute GCase activity (in the presence and absence of CBE) and expressed as nanomoles of 4-MU released per milligram of protein per hour (nmol/mg protein/hr). GCase levels and protein levels were calculated using Microsoft Excel (Redmond, Wash.) and GraphPad Prism version 4.02.

[3] = pH 5.2, Cheng-Prusoff from IC50, read-out: Ki (μM) pH 5.2
[4] = pH 5.2, read-out: IC50 (μM) pH 5.2
[5] = pH 5.2, repeated in Table 3A, read-out: Ki pH 5.2
[6] = pH 5.2, repeated in Table 3B, read-out: Ki pH 5.2
[7] = pH 7.0, Cheng-Prusoff from IC50, read-out: Ki (μM) pH 7.0
[8] = pH 7.0, read-out: IC50 (μM) pH 7.0
[9] = IV, 3 mg/kg free base, AUC0-12 hr, read-out: AUClast (hr*ng/ml), AUC0-12 hr
[10] = IV, 3 mg/kg free base, read-out: t1/2 (converted)
[11] = PO, 10 mg/kg free base, read-out: % F
[12] = PO, 10 mg/kg free base, read-out: t1/2 (converted)
[13] = PO, 30 mg/kg free base, AUC0-24 hr, read-out: AUClast (hr*ng/ml), AUC0-24 hr
[14] = PO, 30 mg/kg free base, read-out: % F
[15] = PO, 30 mg/kg free base, read-out: t1/2 (converted)
[16] = PO, 100 mg/kg free base, AUC0-24 hr, read-out: AUClast (hr*ng/ml), AUC0-24 hr
[17] = PO, 100 mg/kg free base, read-out: % F
[18] = PO, 100 mg/kg free base, read-out: t1/2 (converted)
[19] = intravenous, oral, summary of Tables 4A-D, read-out: half-life
[20] = po, summary of Tables 4A-D, read-out: oral bioavailability

recombinant human GCase (rhGCase; Cerezyme®), sequence (P04062 40-536 R534H limits assumed): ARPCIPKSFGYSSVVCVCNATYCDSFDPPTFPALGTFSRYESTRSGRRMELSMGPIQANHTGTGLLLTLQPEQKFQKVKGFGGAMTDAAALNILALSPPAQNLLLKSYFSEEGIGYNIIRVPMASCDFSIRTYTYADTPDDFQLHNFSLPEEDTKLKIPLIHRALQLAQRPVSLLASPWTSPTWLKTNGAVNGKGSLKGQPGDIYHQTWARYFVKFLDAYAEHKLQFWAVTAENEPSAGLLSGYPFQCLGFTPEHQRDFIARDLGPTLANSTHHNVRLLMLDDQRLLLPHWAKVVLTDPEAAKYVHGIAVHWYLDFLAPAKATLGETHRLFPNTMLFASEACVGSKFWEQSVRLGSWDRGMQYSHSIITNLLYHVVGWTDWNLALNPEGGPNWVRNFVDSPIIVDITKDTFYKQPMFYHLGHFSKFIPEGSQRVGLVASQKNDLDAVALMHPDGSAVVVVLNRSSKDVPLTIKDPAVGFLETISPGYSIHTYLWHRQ

Ki [1, 3] [µM]	IC50 [1, 4] [µM]	Ki [1, 5] [µM]	Ki [1, 6] [µM]	Ki [1, 7] [µM]	IC50 [1, 8] [µM]	Compound	Vd (Rat pharmacokinetics; IV, 3 mg/kg free base) [L/kg]	clearance (Rat pharmacokinetics; IV, 3 mg/kg free base) [mL/min/kg]	AUC(0-t) (Rat pharmacokinetics; [9]) [ng·h/mL]	Cmax (Rat pharmacokinetics; IV, 3 mg/kg free base) [ng/mL]	half-life (Rat pharmacokinetics; [10]) [h]	bioavailability (Rat pharmacokinetics; [11]) [%]	Cmax (Rat pharmacokinetics; PO, 10 mg/kg free base) [ng/mL]	half-life (Rat pharmacokinetics; [12]) [h]	AUC(0-t) (Rat pharmacokinetics; [13]) [ng·h/mL]	bioavailability (Rat pharmacokinetics; [14]) [%]	Cmax (Rat pharmacokinetics; PO, 30 mg/kg free base) [ng/mL]	half-life (Rat pharmacokinetics; [15]) [h]	AUC(0-t) (Rat pharmacokinetics; [16]) [ng·h/mL]	bioavailability (Rat pharmacokinetics; [17]) [%]	other results
0.273 ± 0.012	0.659 ± 0.028	0.273 ± 0.012	0.273 ± 0.012	0.067 ± 0.005	0.127 ± 0.01	O[C@@H]1[C@@H](Cc2ccccc2)CNC[C@H]1O [(3R,4R,5S)-5-benzyl-piperidine-3,4-diol]	12.6 ± 1.79	85.8	592 ± 60.9	969 ± 104	1.7 ± 1.5	61.7 ± 2.4	641 ± 48.7	3.86 ± 0.6	3690 ± 71.5	62.3 ± 1.2	1700 ± 133	3.8 ± 0.19	13500 ± 2180	68.3 ± 10.8	AUC(0-t) (Rat pharmacokinetics; PO, 10 mg/kg free base, AUC0-24 hr, read-out: AUClast (hr*ng/ml), AUC0-24 hr): 1200 ± 46.4 ng·h/mL; Cmax (Rat pharmacokinetics; PO, 100 mg/kg free base): 7140 ± 1360 ng/mL; half-life (Rat pharmacokinetics; [18]): 2.9 ± 0.11 h; half-life (Rat pharmacokinetics; [19]): 1 to 4 h; bioavailability (Rat pharmacokinetics; [20]): 50 to 100%
0.121 ± 0.0026	0.291 ± 0.006	0.121 ± 0.0026	0.121 ± 0.0026	0.031 ± 0.0015	0.06 ± 0.0029	CC[C@@H](F)[C@H]1CNC[C@@H](O)[C@@H]1O.Cl [(3R,4R,5S)-5-((R)-1-fluoropropyl)-piperidine-3,4-diol hydrochloride]															Compound concentration in tissue ([2]; brain, 10 mg/kg FBE p.o.): BLQ(2) (BLQ < 2.2 nmol/kg); Compound concentration in tissue ([2]; brain, 100 mg/kg FBE p.o.): 38 nmol/kg; Compound concentration in tissue ([2]; spleen, 10 mg/kg FBE p.o.): 21 nmol/kg; Compound concentration in tissue ([2]; spleen, 100 mg/kg FBE p.o.): 60 nmol/kg
						Cl.O[C@H]1[C@H](O)CNC[C@@H]1C(F)F [Cmpd 6, (3R,4R,5S)-5-(Difluoromethyl)piperidine 3,4-diol Hydrochloride]	2.61	25.9	2040	2320	1.1	106	3360	2.58	21700	101	10000	2.75	79400	121	Compound concentration in tissue ([2]; brain, 10 mg/kg FBE p.o.): 55 nmol/kg; Compound concentration in tissue ([2]; brain, 100 mg/kg FBE p.o.): 301 nmol/kg; Compound concentration in tissue ([2]; spleen, 10 mg/kg FBE p.o.): 100 nmol/kg; Compound concentration in tissue ([2]; spleen, 100 mg/kg FBE p.o.): 435 nmol/kg; AUC(0-t) (Rat pharmacokinetics; PO, 10 mg/kg free base, AUC0-12 hr, read-out: AUClast (hr*ng/ml), AUC0-12 hr): 6710 ng·h/mL; Cmax (Rat pharmacokinetics; PO, 100 mg/kg free base): 33200 ng/mL; half-life (Rat pharmacokinetics; [18]): 2.41 h; half-life (Rat pharmacokinetics; [19]): 1 to 4 h; bioavailability (Rat pharmacokinetics; [20]): 50 to 100%
